Assay results from PubChem BioAssay AID1963971 (Molecular Pharmacology Branch, DTP, NCI, 2024).

Tested on: 953936-095-R-J2-PDC spheroids with HUVEC/MSC, viability
Test: Anticancer human tumor 953936-095-R-J2-PDC patient-derived cervical squamous cell carcinoma cell line growth inhibition [PI3K]
Details: for IC50: curve of first compound; for viability, T/C: stronger effect = lower value
Summary of the method: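 We assembled tumor spheroids that included a stromal compartment of HUVEC and MSCs, then exposed them to targeted agents alone and together with PI3K pathway inhibitors. Concentration series descended by half-log from clinically achievable Cmax levels. Viability served as the endpoint.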

[1] = second compound 0.0316 µM, first compound 0.0316 µM
[2] = second compound 0.0316 µM, first compound 0.1 µM
[3] = second compound 0.0316 µM, first compound 0.316 µM
[4] = second compound 0.0316 µM, first compound 1 µM
[5] = second compound 0.0316 µM, first compound 3.16 µM
[6] = second compound 0.0316 µM, first compound 10 µM
[7] = second compound 0.1 µM, first compound 0.0316 µM
[8] = second compound 0.1 µM, first compound 0.1 µM
[9] = second compound 0.1 µM, first compound 0.316 µM
[10] = second compound 0.1 µM, first compound 1 µM
[11] = second compound 0.1 µM, first compound 3.16 µM
[12] = second compound 0.1 µM, first compound 10 µM
[13] = second compound 0.316 µM, first compound 0.0316 µM
[14] = second compound 0.316 µM, first compound 0.1 µM
[15] = second compound 0.316 µM, first compound 0.316 µM
[16] = second compound 0.316 µM, first compound 1 µM
[17] = second compound 0.316 µM, first compound 3.16 µM
[18] = second compound 0.316 µM, first compound 10 µM
[19] = second compound 1 µM, first compound 0.0316 µM
[20] = second compound 1 µM, first compound 0.1 µM
[21] = second compound 1 µM, first compound 0.316 µM
[22] = second compound 1 µM, first compound 1 µM
[23] = second compound 1 µM, first compound 3.16 µM
[24] = second compound 1 µM, first compound 10 µM
[25] = second compound 3.16 µM, first compound 0.0316 µM
[26] = second compound 3.16 µM, first compound 0.1 µM
[27] = second compound 3.16 µM, first compound 0.316 µM
[28] = second compound 3.16 µM, first compound 1 µM
[29] = second compound 3.16 µM, first compound 3.16 µM
[30] = second compound 3.16 µM, first compound 10 µM
[31] = second compound 10 µM, first compound 0.0316 µM
[32] = second compound 10 µM, first compound 0.1 µM
[33] = second compound 10 µM, first compound 0.316 µM
[34] = second compound 10 µM, first compound 1 µM
[35] = second compound 10 µM, first compound 3.16 µM
[36] = second compound 10 µM, first compound 10 µM
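Further: spheroids exposed to compounds for seven days before read-out.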

Molecule CC(C)NCC(C(=O)N1CCN(c2ncnc3c2C(C)CC3O)CC1)c1ccc(Cl)cc1 (centres undefined) + Cc1nc(NC(=O)N2CCCC2C(N)=O)sc1-c1ccnc(C(C)(C)C(F)(F)F)c1 has an IC50 (second compound 0.0316 µM) of 825 nM, an IC50 (second compound 0.1 µM) of 709 nM and an IC50 (second compound 0.316 µM) of 463 nM. For the same molecule, the IC50 (second compound 1 µM) was < 31.6 nM, the IC50 (second compound 3.16 µM) was < 31.6 nM and the IC50 (second compound 10 µM) was < 31.6 nM. The viability, T/C [1] was 88.8%, the viability, T/C [2] was 89.2% and the viability, T/C [3] was 75.7%. The viability, T/C [4] was 44.1%, the viability, T/C [5] was 23.3% and the viability, T/C [6] was 14.3%. The viability, T/C [7] was 82.6%, the viability, T/C [8] was 76.7% and the viability, T/C [9] was 67.2%. The viability, T/C [10] was 42.4%, the viability, T/C [11] was 22.4% and the viability, T/C [12] was 12.2%. It also gave a viability, T/C [13] of 64.6%, a viability, T/C [14] of 62.4% and a viability, T/C [15] of 55.6%. It also gave a viability, T/C [16] of 38.2%, a viability, T/C [17] of 17.4% and a viability, T/C [18] of 11.6%. It also gave a viability, T/C [19] of 48.7%, a viability, T/C [20] of 42.2% and a viability, T/C [21] of 39.3%. It also gave a viability, T/C [22] of 28.3%, a viability, T/C [23] of 16.2% and a viability, T/C [24] of 7.67%. It also gave a viability, T/C [25] of 27.6%, a viability, T/C [26] of 25.6% and a viability, T/C [27] of 24.5%. It also gave a viability, T/C [28] of 18%, a viability, T/C [29] of 11.3% and a viability, T/C [30] of 5.35%. The viability, T/C [31] was 11.6%, the viability, T/C [32] was 11.2% and the viability, T/C [33] was 10.9%. It also gave a viability, T/C [34] of 8.17%, a viability, T/C [35] of 5.5% and a viability, T/C [36] of 2.61%.

With CC1(C)CCC(CN2CCN(c3ccc(C(=O)NS(=O)(=O)c4ccc(NCC5CCOCC5)c([N+](=O)[O-])c4)c(Oc4cnc5[nH]ccc5c4)c3)CC2)=C(c2ccc(Cl)cc2)C1 + Cc1nc(NC(=O)N2CCCC2C(N)=O)sc1-c1ccnc(C(C)(C)C(F)(F)F)c1 the IC50 (second compound 0.0316 µM) was 6770 nM, the IC50 (second compound 0.1 µM) was 7010 nM and the IC50 (second compound 0.316 µM) was 5150 nM. The IC50 (second compound 1 µM) was < 31.6 nM, the IC50 (second compound 3.16 µM) was < 31.6 nM and the IC50 (second compound 10 µM) was < 31.6 nM. The viability, T/C [1] was 88.8%, the viability, T/C [2] was 96.5% and the viability, T/C [3] was 97.6%. It also gave a viability, T/C [4] of 100%, a viability, T/C [5] of 109% and a viability, T/C [6] of 25.2%. The viability, T/C [7] was 90.7%, the viability, T/C [8] was 82.5% and the viability, T/C [9] was 82.7%. The viability, T/C [10] was 85.7%, the viability, T/C [11] was 96% and the viability, T/C [12] was 33.5%. It also gave a viability, T/C [13] of 65.3%, a viability, T/C [14] of 64.1% and a viability, T/C [15] of 61.1%. It also gave a viability, T/C [16] of 63.4%, a viability, T/C [17] of 67.8% and a viability, T/C [18] of 30.5%. It also gave a viability, T/C [19] of 52.5%, a viability, T/C [20] of 47.6% and a viability, T/C [21] of 41.2%. The viability, T/C [22] was 40.5%, the viability, T/C [23] was 40% and the viability, T/C [24] was 19.3%. For the same molecule, the viability, T/C [25] was 27.4%, the viability, T/C [26] was 27.2% and the viability, T/C [27] was 25.6%. For the same molecule, the viability, T/C [28] was 26.3%, the viability, T/C [29] was 22.3% and the viability, T/C [30] was 20.4%. The viability, T/C [31] was 11.4%, the viability, T/C [32] was 10.8% and the viability, T/C [33] was 10.2%. It also gave a viability, T/C [34] of 11.8%, a viability, T/C [35] of 12.4% and a viability, T/C [36] of 8.8%.
